Assay results as given in patent US10085450B2, “Tetrazolinone compound and use thereof” (SUMITOMO CHEMICAL COMPANY, LIMITED, priority 2013, dated 2018).

Assays:
[1] = tested on: tomato late blight fungus (Phytophthora infestans); type: in vivo; conditions: 500 ppm water dilution sprayed on tomato (PATIO) seedling; spores inoculated after air-drying
[2] = tested on: rice blast fungus (Magnaporthe grisea); type: in vivo; conditions: 500 ppm water dilution sprayed on rice (NIHONBARE); contact with infected rice seedling for 6 days
[3] = tested on: common house mosquito (Culex pipiens pallens); test: whole plant or invertebrate; conditions: 24 h
Procedure: The test chemical solution (0.7 mL) was added to 100 mL of deionized water to thereby adjust the concentration of the active ingredient to 3.5 ppm. Twenty (20) heads of last instar larvae of common house mosquito (Culex pipiens pallens) were released in the solution. After 1 day, the number of the dead insects was counted.
Mortality was determined by the following equation. Mortality (%)=(number of dead insects/number of tested insects)×100

[4] = tested on: diamondback moth (Plutella xylostella); test: Test Example 20: diamondback moth larvae mortality on sprayed cabbage; type: in vivo; conditions: 120 h
Procedure: Cabbage (cultivar: GREEN BALL) was sowed and grown in a polyethylene cup until the third to fourth true leaf was developed. The test chemical solution was sprayed over the cabbage at a rate of 20 mL per cup. After drying the chemical solution, the cabbage cut from the base was disposed in a polyethylene cup (5.5 cm in diameter) with a filter paper laid on the bottom. Five (5) heads of third-instar larvae of diamondback moth (Plutella xylostella) were released and then a lid was put on the cup. After storage at 25° C. for 5 days, the number of the surviving insects was counted and mortality was calculated by the following equation.

`Cc1cccc(-n2nnn(C)c2=O)c1COc1c(C)c(-c2ccccc2)nn1C` [present compound 8] was tested. Which “area of lesion spots on the treated plant relative to that on an untreated plant” value [1] did it give?
Its value is no more than 30%.

What about the “lesion areas on the treated plant with respect to the lesion area on the non-treated plant” value [2] of the same compound?
The value was no more than 30%.

For `Cc1cccc(-n2nnn(C)c2=O)c1COc1ccc(-c2ccc(Cl)cc2)s1` [present compound 15, 1-{2-[5-(4-chlorophenyl)thiophen-2-yloxymethyl]-3-methylphenyl}-4-methyl-1,4-dihydrotetrazol-5-one], which mortality at 3.5 ppm [3] is on record?
Its mortality at 3.5 ppm is 95%.

`Cc1cccc(-n2nnn(C)c2=O)c1COc1nn(C)c(-c2ccc(Cl)cc2)c1C` [present compound 29, 1-(2-{[1,4-dimethyl-5-(4-chlorophenyl)-1H-pyrazol-3-yloxy]methyl}-3-methylphenyl)-4-methyl-1,4-dihydrotetrazol-5-one] was tested. Which mortality at 3.5 ppm [3] did it give?
The mortality at 3.5 ppm was 95%.

Which mortality at 500 ppm [4] does the source give for `Cc1cccc(-n2nnn(C)c2=O)c1COc1csc(-c2ccccc2)n1` [present compound 10] here?
The mortality at 500 ppm was no less than 80%.

`Cc1cccc(-n2nnn(C)c2=O)c1COc1cc(-c2ccc(Cl)cc2)nn1C` [present compound 4] was tested. Which mortality at 500 ppm [4] did it give?
Its mortality at 500 ppm is no less than 80%.
